Structures are written as SMILES.

We go through 4 molecules from US6339077B1, “Substituted 4-benzylaminoquinolines and their hetero analogs, process for their preparation, pharmaceuticals containing these compounds and use thereof” (Aventis Pharma Deutschland GmbH, priority 1999, dated 2002).

Data set [1] deals with T1, human NHE-3 protein (expressed in the LAP1 cell line) (Homo sapiens, UniProt P48764).
T1 construct: expressed in transfected cells; host or cells: LAP1 cell line
T1 sequence (P48764 26-834): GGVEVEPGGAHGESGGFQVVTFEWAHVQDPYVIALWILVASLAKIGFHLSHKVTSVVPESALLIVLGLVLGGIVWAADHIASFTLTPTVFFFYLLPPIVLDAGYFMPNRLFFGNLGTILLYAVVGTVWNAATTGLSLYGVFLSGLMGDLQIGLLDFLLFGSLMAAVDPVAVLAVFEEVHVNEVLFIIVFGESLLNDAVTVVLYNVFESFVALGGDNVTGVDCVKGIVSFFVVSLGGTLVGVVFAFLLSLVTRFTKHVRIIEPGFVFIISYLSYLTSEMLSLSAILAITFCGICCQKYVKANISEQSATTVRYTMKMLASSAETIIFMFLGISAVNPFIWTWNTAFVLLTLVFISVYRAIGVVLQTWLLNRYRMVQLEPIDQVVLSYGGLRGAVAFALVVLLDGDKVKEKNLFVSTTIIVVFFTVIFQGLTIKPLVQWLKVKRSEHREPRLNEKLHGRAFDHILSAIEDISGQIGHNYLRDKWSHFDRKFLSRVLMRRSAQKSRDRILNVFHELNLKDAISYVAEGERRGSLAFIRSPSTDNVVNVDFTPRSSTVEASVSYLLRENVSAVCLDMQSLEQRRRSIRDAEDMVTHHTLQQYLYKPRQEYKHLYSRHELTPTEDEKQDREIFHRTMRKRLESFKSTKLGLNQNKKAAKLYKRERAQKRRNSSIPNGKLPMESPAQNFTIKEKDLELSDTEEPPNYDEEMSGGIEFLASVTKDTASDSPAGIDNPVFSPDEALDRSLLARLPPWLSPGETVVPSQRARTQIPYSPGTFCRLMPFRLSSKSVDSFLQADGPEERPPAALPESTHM
The data set is described as follows: Inhibition of sodium/proton exchanger subtype 3: recovery of intracellular pH after acidification (BCECF fluorescence). The format is cell-based. Particulars: pHi recovery as percentage of the maximum recovery, read-out: remaining activity of hNHE3. As for the experimental part: Biological testing of the novel compounds was accomplished by measuring inhibition of the sodium/proton exchanger subtype 3.
The remaining activity of the human NHE-3 protein (expressed in the LAP1 cell line) was determined by measuring the recovery in the intracellular pH (pHi) after an acidification, which starts when the NHE is capable of functioning, even under bicarbonate-free conditions. For this purpose, the pHi was determined using the pH-sensitive fluorescent dye BCECF (Calbiochem, the precursor BCECF-AM is employed). The cells were initially loaded with BCECF. […] The intracellular acidification was induced by addition of 975 μl of an NH4Cl-free buffer (see below) to 25 μl aliquots of the cells incubated in NH4Cl buffer. The subsequent rate of pH recovery was recorded for 3 minutes. To calculate the inhibitory power of the substances tested, the cells were initially investigated in buffers in which complete or absolutely no pH recovery took place. […] Test solutions of the substances of interest were made up in the Na^+-containing buffer. Recovery of the intracellular pH at the tested concentration of a substance was expressed as a percentage of the maximum recovery.

The term remaining activity denotes the share of the control activity or signal that is left under treatment. The term melting point denotes the temperature of the solid-liquid transition. On to `COC(=O)c1c(C)nc2cccc(C)c2c1NCc1ccc(C#CC2(O)CCC3(C)C(CC(O)C4C3CC(O)C3(C)C4CC[C@@H]3C(C)CCC(=O)O)C2)cc1` (stereo partly drawn) [Example 11, Methyl 2,5-dimethyl-4-{4-[1-(3α,7α,12α-trihydroxy-10β,13β-dimethyl-17β-(3-carboxy-1-methylpropyl)hexadecahydrocyclopenta[a]phenanthren-3-yl)ethyn-2-yl]benzylamino}quinoline-3-carboxylate], for which the melting point is over 155 °C. For the same molecule, the remaining activity at 30 µM in data set [1] turned out to be 61%.

As to `CC(=O)c1c(C)nc2ccccc2c1NCc1cccc(C#CC2(O)CC[C@@]3(C)C(CC(O)C4C3CC(O)[C@@]3(C)C4CC[C@@H]3[C@H](C)CCC(=O)O)C2)c1` (stereo partly drawn) [Example 13, 2-Methyl-3-acetyl-4-{3-[1-(3α,7α,12α-trihydroxy-10β,13β-dimethyl-17β-(3-carboxy-1-methylpropyl)hexadecahydrocyclopenta[a]phenanthren-3-yl)ethyn-2-yl]benzylamino}quinoline], the melting point is > 195 °C (dec.). In addition, the remaining activity at 30 µM in data set [1] is 40%.

`CC(=O)c1c(C)nc2ccccc2c1NCc1cccc(CCC2(O)CC[C@@]3(C)C(CC(O)C4C3CC(O)[C@@]3(C)C4CC[C@@H]3[C@H](C)CCC(=O)O)C2)c1` (stereo partly drawn) [Example 14, 2-Methyl-3-acetyl-4-{3-[1-(3α,7α,12α-trihydroxy-10β,13β-dimethyl-17β-(3-carboxy-1-methylpropyl)hexadecahydrocyclopenta[a]phenanthren-3-yl)eth-2-yl]benzylamino}quinoline]: the melting point was > 170 °C (dec.). Further, the remaining activity at 30 µM in data set [1] was found to be 52%.

For the molecule `CC(=O)c1c(C)nc2ccccc2c1NCc1ccc(C(=O)NCCO[C@H]2CC[C@@]3(C)C(C2)C[C@@H](O)C2C3C[C@H](O)[C@@]3(C)C2CC[C@@H]3[C@H](C)CCC(=O)O)cc1` (stereo partly drawn) [Example 20, 4-[3β-(2-{4-[(3-Acetyl-2-methylquinolin-4-ylamino)methyl]benzoylamino)-ethoxy)-7α,12α-dihydroxy-10β,13β-dimethylhexadecahydrocyclopenta[a]phenanthren-17β-yl]pentanoic acid], the melting point was > 145 °C (dec.). Further, the remaining activity at 30 µM in data set [1] is 56%.
